Laboratory results taken from article PMC9166766 (Experimental & Molecular Medicine, 2022).
No end group written: not given here.

Columns and labels:
[1] = system: CNAβ2 (calcineurin catalytic subunit); test: Immunoprecipitation assay of Flag-CNAβ2 and tagged peptides in HEK293T cells; assay type: cell-based
Source text: (§1) NC negative control, WT wild-type.
(§2) RU response units, NC negative control.
(§3) (1 picture or pasted object on this page, not shown here)

[2] = system: CNAβ2 (calcineurin catalytic subunit); test: In vitro His-pulldown assay of GST-tagged peptides with His-tagged CNA; assay type: binding; conditions: IP150 buffer with 0.5 mM EDTA
Procedure: (§4) GST-tagged peptides and His-tagged CNAα and β2 were expressed in Escherichia coli BL21(DE3)pLysS. When the OD600 reached 0.5, we treated the bacteria with IPTG (0.1 mM overnight at 18 °C or 1 mM for 4 h at 37 °C). We purified the proteins as described previously. We performed a His-pulldown assay with 0.5 ml of IP150 buffer with 0.5 mM EDTA. We mixed His-tagged CNA with GST-tagged peptides and captured it on Ni-NTA agarose beads (Qiagen, Hilden, Germany). We washed the beads three times with binding buffer and analyzed the proteins by western blotting. We pulled down the GST-tagged peptides using Glutathione Sepharose™ 4 Fast Flow (Cytiva, Marlborough, MA, USA) and the biotin-labeled peptides using Streptavidin Agarose Resin (Thermo Fisher Scientific).
as §1, §2

[3] = system: NFAT transcriptional activity; test: NFAT-luc luciferase reporter assay in Jurkat T cells; assay type: cell-based; conditions: GST-tagged CABIN1 peptides, PMA and ionomycin, n = 3, T9V vs T6V
Procedure: (§5) To measure the transcriptional activity of NFAT, we cotransfected Jurkat T cells with GST-tagged peptides and NFAT-luc by electroporation. After 24 h, we pretreated the cells with 0.5 μM FK506 for 1 h and then treated them with 40 nM PMA and 1 μM ionomycin for 8 h. For the mammalian two-hybrid assay, we cotransfected HEK293T cells with GAL4 DBD-tagged CABIN1, VIVIT, chimeric and substituted peptides, VP16 activation domain-tagged CNAβ2, and pG5-luc (luciferase reporter plasmid containing the GAL4-responsive promoter) for 24 h. We lysed the harvested cells with a luciferase assay lysis buffer (17 mM KH2PO4, 183 mM K2HPO4, pH 7.8, 0.2% [v/v] Triton X-100) and sonicated them briefly. We measured luciferase activity for each cell lysate using an Infinite M200 (Tecan, Männedorf, Switzerland). In addition, we confirmed the expression level of the transfected proteins by Western blotting.
as §2, §3

[4] = system: CABIN1 peptide threonine 9 phosphorylation; test: Phosphorylation of threonine 9 of the expressed peptide in Jurkat T cells (PXpTP western blot, LC-MS/MS); assay type: cell-based; conditions: Jurkat; for phosphorylation of the CABIN1 peptide, effect of p38 inhibitor: 10 μM inhibitor, 16 h, n = 6
Source text: We lysed the cells in IP150 buffer and immunoprecipitated Flag- and HA-tagged proteins with Anti-FLAG ® M2 Affinity Gel (Sigma–Aldrich) and Pierce™ Anti-HA Agarose (Thermo Fisher Scientific), respectively. The composition of the buffer and the subsequent process was described previously. To quantify the western blot results, we measured the band areas using ImageJ (https://imagej.nih.gov/ij/).
We purified HA-mCherry-tagged CABIN1-L-1-2 peptides expressed in Jurkat T cells by immunoprecipitating 4 mg of lysates with Pierce™ Anti-HA Agarose. We eluted the bead-bound proteins by competition with 1 mg/ml HA peptide. After separation by SDS-PAGE and staining with Coomassie Brilliant Blue, we analyzed the purified proteins by LC-MS/MS (ProteomeTech, Inc., Seoul, Korea).
as §2
The phosphorylated threonine of the immunoprecipitated peptide with HA antibody was detected with [PXpTP] antibody. b In vitro kinase assays using purified GST-tagged CABIN1 peptide and PKC downstream kinases. c In vitro kinase assays using purified GST-tagged peptides and kinases included in the MAPK family. d Immunoprecipitation assays using Flag-MAPKs and HA-CABIN1 in HEK293T cells. e, f In vitro kinase assays using p38α and substituted CABIN1 peptides. g Jurkat T cells expressing HA-mCherry-tagged CABIN1 peptide were treated with 10 μM p38α inhibitors for 16 h. Immunoprecipitation was performed with HA antibody and detected by western blotting. h Phosphorylated threonine and peptide-bound CNA of g were measured using ImageJ, and the ratio of phosphorylation and calcineurin binding to the CABIN1 peptide was calculated (n = 6). […] Statistical differences were determined using one-way ANOVA. *p < 0.05, **p < 0.01, ***p < 0.001, CBB Coomassie Brilliant Blue, NC negative control.

[5] = system: CABIN1 peptide-CNA interaction; test: Immunoprecipitation of HA-mCherry-CABIN1 peptide and bound CNA from treated Jurkat T cells; assay type: cell-based; conditions: for CABIN1 peptide binding to CNA, effect of p38 inhibitor: 10 μM inhibitor, 16 h, n = 6
Source text: We lysed the cells in IP150 buffer and immunoprecipitated Flag- and HA-tagged proteins with Anti-FLAG ® M2 Affinity Gel (Sigma–Aldrich) and Pierce™ Anti-HA Agarose (Thermo Fisher Scientific), respectively. […] To quantify the western blot results, we measured the band areas using ImageJ (https://imagej.nih.gov/ij/).
Values shown are the mean ± standard deviation.

[6] = system: CNA (calcineurin catalytic subunit); conditions: biotinylated peptides, His-CNA
Procedure: as §4, §2

[7] = system: CNA (His-tagged calcineurin catalytic subunit); test: Surface plasmon resonance (Biacore T200)
Procedure: Using a Biacore T200 (Cytiva), we captured the biotin-labeled peptides on the surface of a Series S Sensor Chip SA (Cytiva). […] Each cycle was performed at 25 °C at a flow rate of 30 μl/min with 120 s of contact and 240 s of dissociation. We analyzed the kinetics of interactions using BIAevaluation 3.2 RC1 (Cytiva).
Biotinylated peptide-bound CNA was detected with His antibody. […] CNA concentrations ranged from 1.25, 2.5, 5, and 10 nM. […] Values shown are the mean ± standard deviation.

[8] = system: HIF-1α; test: HIF-1α stabilization in Jurkat T cells (western blot); assay type: cell-based; conditions: DMOG
Procedure: Supplementary Fig. 4 No hydroxylation or O -GlcNAcylation occurred in the “PPTP” sequence a Jurkat T cells expressing HA-mCherry -CABIN1 peptide w ere tr eated with DMO G in a dose-dependent manner for 12 h. b Jurkat T cells expressing HA-mCherry-CABIN1 peptide were treated with 500 μ M DMOG in a time-depend ent manner. Each cell lysate was immunoprecipitated with HA antibody and CABIN1 peptide-bound CNA was detected by Western blotting. HIF-1α was det ected as a positive control for DMOG treat ment. c HEK293 T cells were transfected with GST-peptides and GST pull-down assay was conducted.
Hydroxyproline and O-linked glycosylation of the peptides were detected b y Western blotting.
as §3

[9] = system: CNAβ2 (calcineurin catalytic subunit); test: Mammalian two-hybrid assay (VP16 AD-CNAβ2 and GAL4 DBD-peptides, pG5-luc) in HEK293T cells; assay type: cell-based; conditions: for interaction with / binding affinity to CNA (mammalian two-hybrid): CNAβ2, 24 h, repeated three times
Procedure: as §5
A mammalian two-hybrid assay using these peptides was performed (bottom). The compositions of the transfected DNA are described in Supplementary Fig. 1a–c. All experiments were repeated three times and are presented as the mean ± standard deviation. […] SE short exposure, LE long exposure, NC negative control, WT wild-type.
as §1

[10] = system: ERK2; test: In vitro kinase assay, ERK2; assay type: biochemical; conditions: GST-tagged peptide, 1 h, 30 °C, 50 μM ATP
Procedure: (§6) We used the purified GST-tagged peptides for the in vitro kinase assays with activated recombinant kinases obtained from Proqinase GmbH (Freiburg, Germany). We performed the kinase assays in reaction buffer (50 mM HEPES-NaOH, pH 7.5, 3 mM MgCl2, 3 mM MnCl2, 3 μM sodium orthovanadate, 1 mM dithiothreitol, 50 μM unlabeled ATP, 5 μCi ^32P-γ-ATP) for 1 h at 30 °C. We stopped the reaction by adding 5× sample buffer and separated the proteins using SDS-PAGE. The gel was stained with Coomassie Brilliant Blue, dried, and developed on X-ray film.
(§7) The phosphorylated threonine of the immunoprecipitated peptide with HA antibody was detected with [PXpTP] antibody. b In vitro kinase assays using purified GST-tagged CABIN1 peptide and PKC downstream kinases. c In vitro kinase assays using purified GST-tagged peptides and kinases included in the MAPK family. d Immunoprecipitation assays using Flag-MAPKs and HA-CABIN1 in HEK293T cells. e, f In vitro kinase assays using p38α and substituted CABIN1 peptides. g Jurkat T cells expressing HA-mCherry-tagged CABIN1 peptide were treated with 10 μM p38α inhibitors for 16 h. Immunoprecipitation was performed with HA antibody and detected by western blotting. h Phosphorylated threonine and peptide-bound CNA of g were measured using ImageJ, and the ratio of phosphorylation and calcineurin binding to the CABIN1 peptide was calculated (n = 6). […]

[11] = system: p38α; test: In vitro kinase assay, p38α; assay type: biochemical; conditions: GST-tagged peptide, 1 h, 30 °C, 50 μM ATP
Procedure: as §6, §7

[12] = system: JNK1; test: In vitro kinase assay, JNK1; assay type: biochemical; conditions: GST-tagged peptide, 1 h, 30 °C, 50 μM ATP
Procedure: as §6, §7

[13] = set-up: method as in PMID 24319282; conditions: ref [17]; cited from earlier work
Source text: FK506 and cyclosporin A, respectively cooperating with FKBP12 or cyclophilin, spatially hinder the substrates’ access to the active site of calcineurin, inhibiting its phosphatase activity[30],[31].

[14] = biotinylated peptide on SA chip, CNA 1.25-10 nM, HBS-EP+ pH 7.4, 25 °C, 30 μl/min, mean ± SD

Question: With “T9V: CABIN1 peptide with threonine 9 substituted with valine (PEITVTPPVP; not fully specified)” as the molecule, how does the “interaction with CNA by immunoprecipitation” value [1] read?
Answer: abolished the interaction in the cellular experiment

Question: And the “interaction with CNA in vitro (His-pulldown)” value [2]?
Answer: not in vitro

Question: What about the “NFAT transcriptional activity restored by substitution” value [3] of the same molecule?
Answer: restored the CABIN1-suppressed transcriptional activity of NFAT more efficiently than the T6V substitution

Question: For `CCc1nc(-c2cccc(C)c2)c(-c2ccnc(NC(=O)c3ccccc3)c2)s1` [TAK 715], which “phosphorylation of the CABIN1 peptide, effect of p38 inhibitor” value [4] is on record?
Answer: significantly reduced phosphorylation of the CABIN1 peptide

Question: What about the “CABIN1 peptide binding to CNA, effect of p38 inhibitor” value [5] of the same molecule?
Answer: decreasing its binding affinity for CNA

Question: With “Biotin-AAAMAGFPPEITVTPP{pTHR}P [p-CABIN1-L-1]” as the molecule, how does the “affinity for CNA (streptavidin pulldown)” value [6] read?
Answer: dramatically increased the affinity for CNA

Question: And the “increase in binding affinity by phosphorylation of the 9th threonine” value ([7]; SPR, phosphorylated vs unphosphorylated CABIN1 peptide)?
Answer: increased the binding affinity by approximately threefold

Question: And the “Ka (association rate)” value [7, 14]?
Answer: 3393.3±380.8 1/MS

Question: And the “Kd (dissociation rate)” value [7, 14]?
Answer: 5.79e-4±3.2e-5 1/S

Question: What does the source list for `COC(=O)CNC(=O)C(=O)OC` [DMOG, dimethyloxalylglycine]?
Answer: HIF-1α stabilization [8]: stabilized hypoxia-inducible factor-1alpha (HIF-1α); CABIN1 peptide and CNA interaction, effect of DMOG ([5]; DMOG dose-dependent 12 h or 500 μM time-dependent): did not affect the CABIN1 peptide and CNA interaction

Question: For “CABIN1-L-2: CABIN1-L with C-terminal residues removed (FPPEITVTPPT; also: GAL4 DNA-binding domain tag)”, which “interaction with / binding affinity to CNA (mammalian two-hybrid)” value (“interaction with / binding affinity” below) [9] is on record?
Answer: completely lost its binding affinity to CNA

Question: Which results are given for `Cc1ccccc1C(=O)c1ccc(Nc2ccc(Br)cc2N)cc1Cl` [EO 1428]?
Answer: phosphorylation of the CABIN1 peptide, effect of p38 inhibitor [4]: significantly reduced phosphorylation of the CABIN1 peptide; CABIN1 peptide binding to CNA, effect of p38 inhibitor [5]: decreasing its binding affinity for CNA

Question: For “T6V: CABIN1 peptide with threonine 6 substituted with valine (PEITVVPPTP; also: GST and HA tags, end not given here)”, which “interaction with CNA by immunoprecipitation” value [1] is on record?
Answer: abolished the interaction

Question: And the “interaction with CNA in vitro (His-pulldown)” value [2]?
Answer: abolished the interaction

Question: Which “interaction with / binding affinity” value [9] does the source give for “CABIN1-L-1-1: CABIN1-L-1 with N-terminal residues removed (PPEITVTPPTP; also: GAL4 DNA-binding domain tag)” here?
Answer: still bound to CNA

Question: With “CABIN1-L-1-3: CABIN1-L-1 with N-terminal residues removed (EITVTPPTP; also: GAL4 DNA-binding domain tag)” as the molecule, how does the “interaction with / binding affinity” value [9] read?
Answer: lost its binding affinity

Question: With `CCCCCCCCCCCCCC(=O)O[C@@H]1[C@@H](C)[C@@]2(O)[C@@H](C=C(CO)C[C@]3(O)C(=O)C(C)=C[C@@H]23)[C@@H]2C(C)(C)[C@]12OC(C)=O` [PMA, phorbol myristate acetate] as the molecule, how does the “CABIN1 peptide phosphorylation after PMA” value ([4]; 40 nM PMA, two hours after treatment) read?
Answer: CABIN1 peptide phosphorylation increased

Question: With “VIVIT PPTP: chimeric peptide with C-terminal sequence of VIVIT swapped for PPTP of CABIN1 (PVIVITPPTP; also: GAL4 DNA-binding domain tag)” as the molecule, how does the “phosphorylation by ERK2” value [10] read?
Answer: phosphorylated

Question: And the “phosphorylation by p38α” value [11]?
Answer: phosphorylated

Question: What about the “fold enhancement of interaction with CNA, VIVIT PPTP vs. L-1-2 WT (effect of N-terminal PVIVIT)” value ([9]; CNAβ2, VIVIT PPTP vs. L-1-2 WT) of the same molecule?
Answer: 1.93 fold

Question: And the “fold enhancement of interaction with CNA, VIVIT PPTP vs. VIVIT 10-mer (effect of C-terminal PPTP)” value ([9]; CNAβ2, VIVIT PPTP vs. VIVIT 10-mer)?
Answer: 4.76 fold

Question: And the “phosphorylation by JNK1” value [12]?
Answer: phosphorylated

Question: With “CABIN1-L: first 13-amino acid segment containing the PxIxIT motif, from CABIN1-14 (FPPEITVTPPTPT; also: GAL4 DNA-binding domain tag)” as the molecule, how does the “interaction with / binding affinity” value [9] read?
Answer: significantly stronger affinity for CNA than CABIN1-14

Question: For cyclosporin A, which side effects [13] is on record?
Answer: nephrotoxicity, fibrogenesis, neurotoxicity, and diabetes
